{"source": "patent US20040192553A1", "about": "“Inosine L-Arginine salt and uses thereof” (priority 2001, published 2004)", "key": {"[1]": {"experiment": "Test of velocity of dissolution", "format": "physicochemical", "conditions": "1.2 mmol added to 10 mL of water with stirring at room temperature", "description": "Test of Velocity of Dissolution\nEach of the following was added to separate containers containing 10 mL of water with stirring at room temperature: (a) a mixture (0.53 g) of 1.2 mmol of inosine and 1.2 mmol of L-arginine, (b) 1.2 mmol (0.53 g) of the inosine. L-arginine salt obtained in Example 1, and (3) 1.2 mmol (0.32 g) of inosine. The time period for complete dissolution was measured for each. The equimolar mixture of inosine and L-arginine required 50 seconds for complete dissolution. On the other hand, inosine. […] L-arginine salt were confirmed."}, "[2]": {"system": "Lawn seedlings (Western lawn: bent grass)", "experiment": "Plant growth promoting effect, hydroponic culture of lawn seedlings", "format": "in vivo", "conditions": "hydroponics in HYPONEX diluted 2,000-fold, inosine concentration 20 ppm, after a month of culturing", "description": "Plant Growth Promoting Effect\nLawn seedlings (Western lawn: bent grass) were raised and divided into two groups each containing 30 plants. Hydroponics were performed as follows. Both the control group and the inosine. L-arginine salt group were cultured using HYPONEX, diluted by a facter of 2,000. The HYPONEX diluted by a facter of 2000 alone was used as culture fluid for the control group. Inosine- L-arginine salt was added to the culture fluid to an inosine concentration of 20 ppm.\nAfter a month of culturing, the average plant length, the average root length, the number of leaves for 30 plants, the number of branching of a stem for 30 plants, the weight for 30 plants, and the dried weight for 30 plants were measured for each group. From the Table, the effectiveness of inosine. L-arginine salt was confirmed."}, "[3]": {"conditions": "at normal temperatures; cited from earlier work"}}, "data": [{"compound": "N=C(N)NCCC[C@H](N)C(=O)O.OC[C@H]1O[C@@H](n2cnc3c(O)ncnc32)[C@H](O)[C@@H]1O", "note": "[inosine · L-arginine salt, inosine. L-arginine salt]", "values": [{"measurement": "time period for complete dissolution", "setting": "[1]", "value": "dissolved immediately"}, {"measurement": "Dried weight per 30 plants", "setting": "[2]", "value": 0.0434, "unit": "g"}, {"measurement": "Number of branching per 30 plants", "setting": "[2]", "value": 37}, {"measurement": "Number of leaves per 30 plants", "setting": "[2]", "value": 102}, {"measurement": "Weight per 30 plants", "setting": "[2]", "value": 0.13, "unit": "g"}, {"measurement": "Average plant length", "setting": "[2]; 30 plants", "value": 6.0, "unit": "cm"}, {"measurement": "Average root length", "setting": "[2]; 30 plants", "value": 5.0, "unit": "cm"}]}, {"compound": "OC[C@H]1O[C@@H](n2cnc3c(O)ncnc32)[C@H](O)[C@@H]1O", "note": "[inosine]", "values": [{"measurement": "solubility in water", "setting": "[3]", "value": "about 1.6%"}, {"measurement": "time period for complete dissolution", "setting": "[1]", "value": "did not completely dissolve"}]}]}
